Where a name gives a salt, the structure may show the parent alone.
Key:
[1] = target: T1, human alpha 1a adrenergic receptor (Homo sapiens, UniProt P35348); assay: Alpha 1a Adrenergic Receptor Binding screening assay ([125I]-HEAT competition, membranes of stably transfected human alpha 1a cell line); conditions: human alpha 1a receptor, 100 pM [125I]-HEAT, room temperature, one hour
T1 sequence (P35348 1-466): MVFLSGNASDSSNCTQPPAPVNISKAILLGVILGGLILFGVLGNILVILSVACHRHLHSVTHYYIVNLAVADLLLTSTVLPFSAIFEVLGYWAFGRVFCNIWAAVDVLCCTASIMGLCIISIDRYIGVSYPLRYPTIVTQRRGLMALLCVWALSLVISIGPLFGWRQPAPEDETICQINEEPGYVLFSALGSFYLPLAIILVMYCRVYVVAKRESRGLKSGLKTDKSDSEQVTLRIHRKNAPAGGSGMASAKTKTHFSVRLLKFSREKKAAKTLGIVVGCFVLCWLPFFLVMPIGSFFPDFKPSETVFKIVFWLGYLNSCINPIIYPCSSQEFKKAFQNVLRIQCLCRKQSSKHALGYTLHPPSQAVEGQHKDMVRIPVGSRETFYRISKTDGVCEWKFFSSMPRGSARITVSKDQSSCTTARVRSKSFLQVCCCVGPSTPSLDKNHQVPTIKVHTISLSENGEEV
Method: Screening assay: Alpha 1a Adrenergic Receptor Binding
Membranes prepared from the stably transfected human alpha 1a cell line (ATCC CRL 11140) were used to identify compounds that bind to the human alpha 1a adrenergic receptor. These competition binding reactions (total volume=200 μl) contained 50 mM Tris-HCl pH. 7.4, 5 mM EDTA, 150 mM NaCl, 100 pM [^125 I]-HEAT, membranes prepared from the alpha 1a cell line and increasing amounts of unlabeled ligand. Reactions were incubated at room temperature for one hour with shaking. Reactions were filtered onto Whatman GF/C glass fiber filters with a Inotec 96 well cell harvester. Filters were washed three times with ice cold buffer and bound radioactivity was determined (Ki).

[2] = test system: human alpha 1b and alpha 1d adrenergic receptors; assay: Selective Binding assays ([125I]-HEAT competition, membranes of stably transfected human alpha 1d and alpha 1b cell lines), compared with alpha 1a; conditions: alpha 1a versus alpha 1b and alpha 1d
Method: Selective Binding assays Membranes prepared from stably transfected human alpha 1d and alpha 1b cell lines (ATCC CRL 11138 and CRL 11139, respectively) were used to identify compounds that selectively bind to the human alpha 1a adrenergic receptor. These competition binding reactions (total volume=200 μl) contained 50 mM Tris-HCl pH. 7.4, 5 mM EDTA, 150 mM NaCl, 100 pM [^125 I]-HEAT, membranes prepared from cell lines transfected with the respective alpha 1 subtype expression plasmid and increasing amounts of unlabeled ligand. Reactions were incubated at room temperature for one hour with shaking. Reactions were filtered onto Whatman GF/C glass fiber filters with a Inotec 96 well cell harvester. Filters were washed three times with ice cold buffer and bound radioactivity was determined (Ki).

## Cl.O=C(N[C@@H]1CCN([C@H]2CC[C@@H](c3ccccn3)CC2)C1)N1C(=O)OC[C@@H]1c1ccc(F)c(F)c1 [Example 12, (4S)-cis-4-(3,4-Difluorophenyl)-2-oxooxazolidine-3-carboxylic acid-[1-(4-pyridin-2-yl-cyclohexyl)-(3R)-pyrrolidin-3-yl]amide hydrochloride]
[1]
  Ki: < 200 nM
[2]
  selectivity in binding to alpha 1a receptors versus binding to the alpha 1b and alpha 1d receptors: at least 3 fold

## COc1ccccc1[C@H]1CC[C@@H](N2CC[C@@H](NC(=O)N3C(=O)OC[C@@H]3c3ccc(F)c(F)c3)C2)CC1 [Example 16, (4S)-cis-4-(3,4-Difluorophenyl)-2-oxooxazolidine-3-carboxylic acid-{1-[4-(2-methoxyphenyl)-cyclohexyl]-(3R)-pyrrolidin-3-yl}amide hydrochloride]
[1]
  Ki: ~800 nM

## O=C(N[C@@H]1CCN(C2CCC(O)(c3ccccn3)CC2)C1)N1C(=O)OC[C@@H]1c1ccc(F)c(F)c1 (stereo partly drawn) [Example 20, (4S)-trans-4-(3,4-Difluorophenyl)-2-oxooxazolidine-3-carboxylic acid-[1-(4-hydroxy-4-pyridin-2-yl-cyclohexyl)-(3R)-pyrrolidin-3-yl]amide hydrochloride]
[1]
  alpha 1a Ki: inactive

## NC(=O)[C@@H]1OC(=O)N(C(=O)N[C@@H]2CCN([C@H]3CC[C@H](c4ccccc4F)CC3)C2)[C@H]1c1ccc(F)c(F)c1 [Example 78, (4S,5R)-trans-4-(3,4-Difluorophenyl)-3-{1-[4-(2-fluorophenyl)cyclohexyl]-(3R)-pyrrolidin-3-ylcarbamoyl}-2-oxo-oxazolidine-5-carboxamide]
[2]
  selectivity in binding to alpha 1a receptors versus binding to the alpha 1b and alpha 1d receptors: about 37 fold
